Experimental data from article PMC3479139, “Diverse Small Molecule Inhibitors of Human Apurinic/Apyrimidinic Endonuclease APE1 Identified from a Screen of a Large Public Collection” (PLoS ONE, 2012).
Like-named read-outs stand apart in the source and are kept apart here.

Legend:
[1] = molecular target: T1, E. coli Endo IV (Escherichia coli, UniProt P0A6C1); assay: E. coli Endo IV profiling counterscreen; format: biochemical;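 note: selectivity counterscreen of candidate APE1 inhibitors against the bacterial endonuclease Endo IV, run in the same assay format as the primary APE1 high-throughput screen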
T1 construct: made in house
Description: In order to screen out nonselective compounds, such as non-specific DNA binders and inhibitors of related enzymes, we used a miniaturized ThO DNA displacement assay and a counterscreen against the bacterial endonuclease E. coli Endo IV, respectively, following the previously published protocols [21].
To probe the selectivity of the candidate APE1 inhibitors, we tested them against E. coli EndoIV [36], employing the same assay as used in the HTS.

[2] = system: HeLa cells; assay: MMS potentiation assay (CellTiter Glo viability); format: cell-based, human; design: key: N.A., no activity observed; P, positive; I, inconclusive; N.T., not tested; settings: for MMS Assay: potentiation of the genotoxic effect of methylmethane sulfonate
Experimental: HeLa cells were plated at 6000 cells/well in DMEM culture medium containing 10% FBS into white solid bottom 384-well cell culture plates. The plates were incubated at 37°C overnight for cell attachment, followed by media replacement. The fresh medium contained serial dilutions of compounds of interest in the presence (0.4 mM final) or absence of MMS. The plates were incubated for 24 h at 37°C. Cell viability was determined by luminescence detection after an addition of 15 µL of CellTiter Glo reagent (Promega, Madison, WI). Percent viability was calculated for each concentration of compound tested in duplicate by relating the corresponding luminescence to that of a negative DMSO vehicle control. MMS potentiation trends were defined as follows: negative (-), if cell viability in the compound-plus-MMS treatment was the same as that of the DMSO-plus-MMS control (overlapping dose-response curves); inconclusive (I), if the shift in the cell viability dose-response upon MMS inclusion relative to compound-alone was less than 30%; and positive (P), if the difference between the compound-plus-MMS and compound-alone curves was at least 30%, and maintained within at least a two-fold compound concentration span.
To examine the biological prospects of the top compounds, we tested their ability to inhibit APE1 DNA repair activity by assessing enhancement of MMS toxicity in mammalian cells. MMS creates methylated-base damage to genomic DNA, which, when excised by an alkylpurine DNA glycosylase, results in a high number of cytotoxic AP sites. We compared the viability of HeLa cells exposed to a dilution series of inhibitor alone to a combination of a fixed MMS concentration with the same dilution series of inhibitor by using a standard CellTiter Glo luminescence assay. This technique measures the number of viable cells in culture based on quantitation of the ATP present, which signals the presence of metabolically active cells. The assay was further optimized for 384-well plates, allowing a high-throughput testing of multiple hits at multiple concentrations, a scope of investigation previously impossible due to the very low throughput of the traditionally applied colony formation assay.
From the 223 compounds found positive in the gel-based APE1 assays, exclusion of the most promiscuous hits, that is, those that were both DNA binders and EndoIV-inhibitory, yielded a set of 170 compounds (Figure 3). This shortened group of hits was tested in the cell-based potentiation assay for their ability to dose-dependently enhance sensitivity of HeLa cells to the alkylating agent MMS.

[3] = molecular target: T2, APE1 (Homo sapiens, UniProt P27695); assay: Fluorescence polarization (FP) displacement assay of APE1 binding to AP-DNA probe;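 note: TAMRA 5′-labeled duplex DNA with THF abasic site (5 nM) and APE1 (20 nM), Mg2+-free buffer, 15 min at room temperature, inhibition seen as lowered polarization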
T2 construct: made in house
T2 sequence (P27695 whole entry): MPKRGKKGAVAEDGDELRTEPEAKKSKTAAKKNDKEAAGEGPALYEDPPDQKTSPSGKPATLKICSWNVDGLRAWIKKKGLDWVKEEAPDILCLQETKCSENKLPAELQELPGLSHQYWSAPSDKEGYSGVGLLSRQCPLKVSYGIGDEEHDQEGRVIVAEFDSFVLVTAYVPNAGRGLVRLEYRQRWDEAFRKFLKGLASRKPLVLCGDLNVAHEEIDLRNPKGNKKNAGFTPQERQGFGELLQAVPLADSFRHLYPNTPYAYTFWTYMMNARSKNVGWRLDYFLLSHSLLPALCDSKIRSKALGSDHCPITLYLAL
Experimental: Double-stranded oligodeoxynucleotide containing tetrahydrofuran (THF) abasic site labeled with TAMRA at the 5′-end was used as the labeled binding probe. Inhibition of APE1 binding to labeled probe was detected by a decrease in the fluorescence polarization (FP) of the fluorophore. Briefly, 4 µL mixture of 20 nM APE1 and 5 nM probe contained in the enzymatic assay buffer from which Mg^2+ was omitted, was dispensed into 1536-well Greiner black solid bottom plates. Compounds (23 nL) were transferred via pintool, and after a 15-minute incubation at room temperature, fluorescence polarization was measured in a ViewLux High-throughput CCD imager (480 nm excitation and 540 nm emission) to determine the degree of probe displacement caused by the test compounds.

[4] = system: tubulin; design: method as in PMID 20657644; settings: cited from earlier work
[5] = system: HeLa cells; assay: AP site measurement in genomic DNA; format: cell-based, human; settings: for AP site levels, combination treatment versus MMS-alone / AP sites upon treatment with the inhibitor alone: 24 h; for AP site levels, combination treatment versus MMS-alone / AP site levels, combination versus MMS-alone, repeat testing: 275 µM MMS plus inhibitor; for AP site levels, combination treatment versus MMS-alone: initial test (Figure 8); for AP site levels, combination versus MMS-alone, repeat testing: repeat test (Figure S1); for AP sites upon treatment with the inhibitor alone: inhibitor alone vs vehicle
Experimental: HeLa cells at 80% confluency (6×10^5 cells) were subjected to the following treatments in a 6-well plate for 24 hours at 37°C: 1) DMSO alone, 2) 275 µM MMS, 3) APE1 inhibitors dissolved in DMSO (5–20 µM final compound concentration), and 4) the inhibitors as in treatment 3 in combination with 275 µM MMS. Cells were then harvested and processed using a Qiagen Genomic DNA isolation kit (Germantown, MD). After DNA quantitation, AP sites were measured using the DNA Damage Quantification kit from Dojindo Molecular Technologies (Rockville, MD).
As stated above, the application of the genotoxic agent MMS results in an increase in the level of AP sites within the genome. An effective APE1-targeted inhibitor applied under the conditions of increased genotoxic stress is expected to interfere with the repair of AP sites, while ideally having no effect on the AP site levels when applied as a single agent. Thus, the net effect of treating cells with a combination of MMS and inhibitor would be an increase in the number of AP site lesions. To determine the effect on AP site accumulation caused by treatment with MMS in combination with an APE1 inhibitor, as compared to treatment with MMS or inhibitor alone, we measured AP site levels in the chromosomal DNA from HeLa cells using an aldehyde-reactive probe-based colorimetric assay. The concentrations of MMS and inhibitor (275 µM for MMS and between […] for the inhibitor, respectively) were selected to fall below the onset of cytotoxicity for each agent based on the analysis of the MMS potentiation data shown in Figure 5.

[6] = molecular target: double-stranded 17-mer DNA fragment; assay: ThO (Thiazole Orange) DNA displacement assay; format: binding; settings: read-out: ThO-DNA binding IC50;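 note: miniaturized displacement of the intercalating dye from unlabeled duplex DNA, used to flag nonspecific DNA binders, chiefly intercalators, groove binders may be missed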
[7] = molecular target: T2, APE1; assay: Fluorogenic kinetic qHTS APE1 incision assay (primary screen and retest of cherrypicked samples); format: biochemical;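 note: purified APE1 cleaving a fluorophore/dark-quencher labelled 17-mer duplex DNA bearing a tetrahydrofuran AP site, fluorescence rise followed kinetically over the first 2 min, inhibition normalized to controls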
Experimental: All screening operations were performed on a fully integrated robotic system (Kalypsys, San Diego, CA) [28] with library plates screened proceeding from the lowest to the highest concentration to minimize compound carryover [26]. Vehicle-only plates, with DMSO being pin-transferred to the entire column 5–48 compound area, were included regularly throughout the screen in order to record any systematic shifts in assay signal. During the screen, reagent bottles were kept at 4°C and all liquid lines were covered with aluminum foil to minimize degradation.
Screening data were corrected and normalized, and concentration–effect relationships was derived using in-house developed algorithms [25].
To screen for inhibitors of APE1 incision activity, we employed a purified-enzyme biochemical assay with a model substrate featuring a red-shifted fluorescent reporter in combination with a dark non-emitting quencher. These moieties were incorporated as end labels onto a 17-mer double-stranded DNA fragment containing a centrally-located tetrahydrofuran AP site sugar mimetic, which serves as the APE1 cleavage site. Upon APE1-catalyzed strand scission immediately 5′ to the AP site analog, the shortened oligodeoxynucleotide carrying the fluorescent reporter spontaneously dissociates from the rest of the substrate, leading to an increase in fluorescence due to its spatial separation from the dark quencher (Figure 1A).
Using a high-speed whole-plate fluorescence imager, the assay data for the entire screen was conducted in kinetic mode, with the APE1 incision reaction being monitored over the initial linear time frame of 2 min (Figure 1B). Thus, any inhibition associated with each sample was computed from the alteration in fluorescence intensity over the time-course measurement period, after normalization against the appropriate controls (Figure 1B, inset).

[8] = molecular target: T2, APE1; assay: Gel-based radiotracer (32P) APE1 incision assay; format: biochemical; design: concentration or dose not given beside the values; settings: percent incision shown; entries 1-112;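 note: APE1 incision reactions ran 5 min at 37 °C, with cleaved product and intact substrate resolved electrophoretically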
[9] = system: human immunodeficiency virus integrase; design: method as in PMID 9865384; settings: cited from earlier work
[10] = molecular target: T2, APE1; assay: Gel-based APE1 incision assay with fluorescence (TAMRA) detection; format: biochemical
Experimental: To test the compounds’ inhibitory activity after the primary screen, two assays designed to monitor the cleavage of substrate to product through electrophoretic separation were utilized. The radiotracer incision assay, utilizing a ^32P-labeled substrate, was performed essentially as described [21], [31], [32]. Incision reactions utilizing ^32P-labeled substrate were carried out for 5 min at 37°C. After the addition of an equal volume of stop buffer (0.05% bromophenol blue and xylene cyanol, 20 mM EDTA, 95% formamide), the substrate and product were separated on a standard polyacrylamide denaturing gel and quantified by PhosphorImager analysis [32]. […] APE1 cleavage of the substrate results in a 18-mer TAMRA-labeled fragment which was separated by a non-denaturing polyacrylamide gel electrophoresis and quantitated in a Gel Doc XR imaging system, BioRad (Hercules, CA). The advantage of this assay is that it can be used in a relatively high throughput mode with the inhibitors tested at a range of concentrations (0.17 µM to 125 µM was used here). APE1 (0.15 nM) was added to a reaction mixture of 20 µL containing assay buffer (40 mM HEPES pH 7.5, 50 mM NaCl, 1 mM MgCl2 and 2 mM DTT), and labeled ds DNA substrate (final 75 nM). The mixture was incubated at RT for 15 min, and the reaction was stopped by the addition 20 µL of 2X dye stop solution (10% glycerol, 20 mM EDTA and bromophenol blue). Then 10 µL of the mixture was resolved on 20% polyacrylamide gel in 1X Tris-borate EDTA running buffer at 250 V for 40 min.
To eliminate false positive hits, all 595 confirmed molecules were tested for their ability to inhibit APE1 incision activity using biochemical assays that involve electrophoretic separation of the substrate and cleavage product.

[11] = system: histone acetyltransferase (HAT) p300; design: method as in PMID 20534345, PMID 21764752; settings: cited from earlier work
[12] = initial qHTS, 7-point titration, read-out: qHTS, IC50 obtained in the initial quantitative high-throughput screen
[13] = initial quantitative high-throughput screen, read-out: APE1 qHTS IC50
[14] = retest of cherrypicked sample, read-out: APE1 Retest IC50
[15] = estimated IC50, fluorophore detection, entries 113-223, read-out: F-PAGE Assay IC50

Row | SMILES | IC50 ([1]; read-out: EndoIV IC50) | MMS Assay [2] | IC50 ([3]; read-out: FP IC50) | AP site levels, combination treatment versus MMS-alone [5] | IC50 [6] | IC50 [7, 13] | IC50 [7, 14] | Radiotracer Assay (%Activity) [8] | IC50 [1] | AP sites upon treatment with the inhibitor alone [5] | other results
1 | Cc1c(C(=O)OCC2CCCO2)[nH]c2c1C(=O)CC(c1ccco1)C2 (stereo not drawn) [MLS000090966] | > 57 µM | P | 15.8 µM | obscured by large standard deviations | > 57 µM | 7.1 µM | 4.5 µM | 37% | – | – | Inhibition of tubulin assembly [4]: effective inhibitor; IC50 [7, 12]: 7.07 µM
2 | COc1ccc(Cc2nnc(NC(=O)Cc3cccs3)s2)cc1OC [MLS000115025] | > 57 µM | P | > 57 µM | obscured by large standard deviations | > 57 µM | 28.2 µM | 2 µM | 48% | – | – | AP site levels, combination versus MMS-alone, repeat testing [5]: support the initially-observed enhancements; IC50 [7, 12]: 28.1 µM
3 | O=C1NC(=O)N(Cc2ccco2)C(=O)C1=CC=Cc1ccco1 [MLS000587064] | – | P | – | obscured by large standard deviations | > 57 µM | – | – | 14% | > 57 µM | – | IC50 [3]: > 57 µM; AP site levels, combination versus MMS-alone, repeat testing [5]: support the initially-observed enhancements; IC50 ([7]; APE1 Retest IC50, retest of cherrypicked sample): 5 µM; IC50 ([7]; APE1 qHTS IC50, initial quantitative high-throughput screen): 2.8 µM
4 | COc1ccc2c(c1)c(=O)oc1cc(OCC(=O)N3CCc4ccccc4C3)ccc12 [MLS000594187] | > 57 µM | P | > 57 µM | no statistical significance | > 57 µM | 10 µM | 3.91 µM | 51% | – | – | –
5 | O=c1oc2c(cc1O)oc(=O)c1cc(O)c(O)c(O)c12 [MLS000737267, galloflavin] | > 57 µM | P | > 57 µM | no statistical significance | 6.3 µM | 0.4 µM | 0.13 µM | 46% | – | – | HIV integrase IC50 [9]: low-micromolar
6 | COc1cc2c(ccc3cc(OC)c(OC)c(O)c32)cc1O [MLS000863573] | – | P | 12.6 µM | no statistical significance | 11.2 µM | 0.7 µM | 0.6 µM | 4% | 8.9 µM | – | –
7 | CC1CCN(C2=NN3C(=N)/C(=C\c4ccc(OC(=O)c5ccco5)cc4)C(=O)N=C3S2)CC1 [MLS001076862] | > 57 µM | P | – | no statistical significance | > 57 µM | 10.6 µM | – | – | – | noticeable increase in AP sites | IC50 [10, 15]: 4 µM
8 | CCOC(=O)c1cc(-c2ccc(/C=C3/C(=O)N(c4ccc(C(=O)O)cc4)N=C3C)o2)ccc1Cl [MLS001196838] | > 57 µM | P | > 57 µM | – | 16.2 µM | 8.4 µM | 25.7 µM | – | – | noticeable increase in AP sites | IC50 [10, 15]: 7.9 µM; Inhibition of HAT p300 [11]: potent and selective inhibitor
9 | COc1ccc2nc3cc(Cl)ccc3c(Nc3cc(CN4CCCC4)c(O)c(CN4CCCC4)c3)c2n1 [MLS001306480, pyronaridine, reference compound] | – | – | 32.4 µM | – | > 57 µM | 15 µM | 6.5 µM | – | 28.9 µM | noticeable increase in AP sites | MMS Assay: potentiation of the genotoxic effect of methylmethane sulfonate [2]: P; IC50 ([10]; entries 113-223: fluorophore detection, estimated IC50, read-out: Gel-based electrophoretic separation assay with fluorophore detection, estimated IC50 (column headed Radiotracer Assay (%Activity))): 12.6 µM
